Results published in patent publication US8802895B2, “Amide derivatives of benzene-sulfonanilide, pharmaceutical composition thereof and method for cancer treatment using the same” (Cleveland State University, priority 2010, dated 2014).
Read-outs that look alike come from different tables or passages of the source.

Experiments:
[1] = test system: cells; experiment: Primary mechanism study: cell viability with compound #10 and 2-APB (FIG. 10); format: cell-based; conditions: 2-APB added two hours before compound #10; cell viability after 48 hours
Description: For the experiment, 2-APB was first added. […] The control cells were treated with same amount of DMSO to carry the drugs. The cell viability was evaluated after 48 hours.

[2] = test system: SKBR-3 cells; experiment: MTT cell viability assay with SKBR-3 cells; format: cell-based; conditions: Homo sapiens, SK-BR-3
Description: SKBR-3 cells were obtained from ATCC (Rockville, Md.). […] Bovine serum was heat inactivated for 30 min in a 56° C. water bath before use. Cell cultures were grown at 37° C., in a humidified atmosphere of 5% CO2 in a Hereaus CO2 incubator. For all experiments, cells were seeded in 96 well plates with 5000 cells/well density.
Cells were grown in custom medium in 96-well, flat-bottomed plates for 24 h, and were exposed to various concentrations of nimesulide derivatives dissolved in DMSO (final concentration≦0.1%) in media for different time intervals. Controls received DMSO vehicle at a concentration equal to that in drug-treated cells. […] Supernatants were removed from the wells, and the reduced 3-(4,5-dimethylthiazol-2-yl)-2,5-diphenyl-2H-tetrazolium bromide dye was solubilized in 200 μl/well DMSO. Absorbance at 570 nm was determined on a plate reader.

[3] = SKBR-3 cells, cell viability, read-out: IC50

SMILES	IC50 [2, 3] [nM]	further results
NCCOB(c1ccccc1)c1ccccc1 [Compound 2-APB, 2-aminoethoxydiphenyl borate, reference compound]	–	rescue of cell death from compound #10 treatment (cell viability) [1]: can partially rescue the cell death from compound #10 treatment
COc1ccc(OC)c(COc2cc(NC(=O)c3ccc4c(c3)OCO4)ccc2N(C)S(C)(=O)=O)c1 [Compound #43, N-[3-(2,5-dimethoxyl-benzyloxy)-4-(methanesulfonyl-methyl-amino)-phenyl]-1,3-benzodioxole-5-carboxamide]	–	IC50 [2]: 7.5 ± 2.8 nM
COc1ccc(OC)c(COc2cc(NC(=O)c3ccc4ccccc4c3)ccc2N(C)S(C)(=O)=O)c1 [Compound #45, N-[3-(2,5-dimethoxyl-benzyloxy)-4-(methanesulfonyl-methyl-amino)-phenyl]-2-naphthalenecarboxamide]	16.6 ± 7.7	–
COc1ccc(OC)c(COc2cc(NC(=O)c3ccc(OC)c(OC)c3)ccc2N(C)S(C)(=O)=O)c1 [Compound #44, N-[3-(2,5-dimethoxyl-benzyloxy)-4-(methanesulfonyl-methyl-amino)-phenyl]-3,4-dimethoxy-benzamide]	2.6 ± 1.3	–
COc1ccc(OC)c(COc2cc(NC(=O)c3ccc(Br)cc3)ccc2N(C)S(C)(=O)=O)c1 [Compound #42, N-[3-(2,5-dimethoxy-benzyloxy)-4-(methanesulfonyl-methyl-amino)-phenyl]-4-bromobenzamide]	–	IC50 [2]: 3.5 ± 1.9 nM
COc1ccc(C(=O)Nc2ccc(N(C)S(C)(=O)=O)c(OCc3cc(OC)ccc3OC)c2)cc1 [Compound #41, N-[3-(2,5-dimethoxy-benzyloxy)-4-(methanesulfonyl-methyl-amino)-phenyl]-4-methoxy-benzamide]	0.87 ± 0.33	–
COc1ccc(OC)c(COc2cc(NC(=O)c3ccc(I)cc3)ccc2N(C)S(C)(=O)=O)c1 [Compound #40, N-[3-(2,5-dimethoxyl-benzyloxy)-4-(methanesulfonyl-methyl-amino)-phenyl]-4-iodo-benzamide]	1.8 ± 0.7	–
